Measurements published in PubChem BioAssay AID1259411 (Chemical Carcinogenesis Research Information System (CCRIS), 2018).
Calls of active or inactive are those of the source. How the calls were made is not given here.

System: rodent carcinogenicity bioassays, tumor incidence
Experiment: CCRIS carcinogenicity studies
In short: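 NCI-built, expert-reviewed records of carcinogenicity and related test outcomes (mutagenicity, tumor promotion/inhibition) compiled from published and report sources, historical span 1985-2011, not updated.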

## CC(O)CN(CC(C)O)N=O (centres undefined)
Species: HAMSTER, Strain/Sex: SYRIAN/MALE,FEMALE, Route: SUBCUTANEOUS, Dose: 40 MG/KG IN SALINE ONCE, Tumor Site: Type of Lesion: PANCREAS: ADENOMA, ADENOCARCINOMA, INTRADUCTAL CARCINOMA
  carcinogen call: active; positive
Species: HAMSTER, Strain/Sex: SYRIAN/MALE, Route: SUBCUTANEOUS, Dose: 25, 125, 250 MG/KG 1/WK FOR LIFE, Dose: 25, 125, 250 MG/KG 1/WK FOR LIFE, Tumor Site: Type of Lesion: PANCREAS, NASAL CAVITY, LUNG, LIVER, TRACHEA, LARYNX, Tumor Site: Type of Lesion: PANCREAS, NASAL CAVITY, LUNG, LIVER, TRACHEA, LARYNX
  carcinogen call: active; positive
Species: HAMSTER, Strain/Sex: SYRIAN/MALE, Route: SUBCUTANEOUS, Dose: 250, 500, 1000 MG/KG IN OLIVE OIL 1/WK FOR 20 WK, Dose: 250, 500, 1000 MG/KG IN OLIVE OIL 1/WK FOR 20 WK, Tumor Site: Type of Lesion: PANCREAS: ADENOCARCINOMA
  carcinogen call: active; positive
Species: HAMSTER, Strain/Sex: SYRIAN/MALE, Route: SUBCUTANEOUS, Dose: 250 MG/KG IN OLIVE OIL 1/WK FOR 25 WK, Tumor Site: Type of Lesion: PANCREAS: ADENOCARCINOMA
  carcinogen call: active; positive
Species: MOUSE, Strain/Sex: ICR/FEMALE, Route: SUBCUTANEOUS, Dose: 0, 25, 50, 100 MG/KG BW ONCE ON DAYS 1 AND 8 OF AGE (STUDY DURATION: 50 WK), Dose: 0, 25, 50, 100 MG/KG BW ONCE ON DAYS 1 AND 8 OF AGE (STUDY DURATION: 50 WK), Tumor Site: Type of Lesion: LUNG: TUMOR, LIVER: TUMOR
  carcinogen call: active; positive
Species: MOUSE, Strain/Sex: ICR/MALE, Route: SUBCUTANEOUS, Dose: 0, 25, 50, 100 MG/KG BW ONCE ON DAYS 1 AND 8 OF AGE (STUDY DURATION: 50 WK), Dose: 0, 25, 50, 100 MG/KG BW ONCE ON DAYS 1 AND 8 OF AGE (STUDY DURATION: 50 WK), Tumor Site: Type of Lesion: LUNG: TUMOR, LIVER: TUMOR
  carcinogen call: active; positive
Species: MOUSE, Strain/Sex: STRAIN-DD/MALE, Route: ORAL, Dose: 100, 250, 500, 1000 PPM IN DRINKING WATER (DAILY INTAKE: 6.3-34.2 MG), Dose: 100, 250, 500, 1000 PPM IN DRINKING WATER (DAILY INTAKE: 6.3-34.2 MG), Tumor Site: Type of Lesion: LUNG: ADENOMA, ADENOCARCINOMA, LIVER: HEMANGIOMA, HEMANGIOENDOTHELIOMA, HEMANGIOENDOTHELIAL SARCOMA
  carcinogen call: active; positive
Species: RAT, Strain/Sex: SPRAGUE-DAWLEY/FEMALE, Route: ORAL, Dose: 106 MG/L IN DRINKING WATER 5 DAY/WK FOR 30 WK (TOTAL DOSE: 318 MG), Tumor Site: Type of Lesion: LIVER: HEPATOCELLULAR CARCINOMA, CHOLANGIOCARCINOMA, HEMANGIOENDOTHELIAL SARCOMA
  carcinogen call: active; positive
Species: RAT, Strain/Sex: SPRAGUE-DAWLEY/FEMALE, Route: ORAL, Dose: 108 MG/L IN DRINKING WATER 5 DAY/WK FOR 50 WK (TOTAL DOSE 540 MG), Tumor Site: Type of Lesion: NASAL TURBINATES: ADENOCARCINOMA, SQUAMOUS CELL CARCINOMA
  carcinogen call: active; positive
Species: RAT, Strain/Sex: WISTAR/MALE, Route: INTRAPERITONEAL, Dose: 3, 4 G/KG ONCE, Tumor Site: Type of Lesion: LUNG: ADENOMA, ADENOCARCINOMA
  carcinogen call: active; positive
Species: RAT, Strain/Sex: WISTAR/MALE, Route: ORAL, Dose: 100, 500 PPM IN DRINKING WATER FOR 25 WK, Tumor Site: Type of Lesion: LUNG: ADENOMA, ADENOCARCINOMA, SQUAMOUS CELL CARCINOMA
  carcinogen call: active; positive
Species: RAT, Strain/Sex: WISTAR/MALE, Route: ORAL, Dose: 100, 500 PPM IN DRINKING WATER FOR 52 WK, Tumor Site: Type of Lesion: LUNG: ADENOMA, ADENOCARCINOMA, SQUAMOUS CELL CARCINOMA, LIVER: HEMANGIOMA, HEPATOCELLULAR CARCINOMA
  carcinogen call: active; positive

## CC(C)c1ccccc1
Species: Mouse, Strain/Sex: B5C3F1/ Female (50/Group), Route: Inhalation, Dose: 0, 125, 250, 500 ppm for 6 hr plus 12 min per d, 5 d/wk, 105 wk (Study duration: 105 wk), Dose: 0, 125, 250, 500 ppm for 6 hr plus 12 min per d, 5 d/wk, 105 wk (Study duration: 105 wk), Tumor Site: Type of Lesion: Lung: Alveolar/bronchiolar adenoma (1/50; 26/50; 36/50; 38/50), Alveolar/bronchiolar carcinoma (3/50, 16/50, 20/50, 34/, Tumor Site: Type of Lesion: Lung: Alveolar/bronchiolar adenoma (1/50; 26/50; 36/50; 38/50), Alveolar/bronchiolar carcinoma (3/50, 16/50, 20/50, 34/
  carcinogen call: active; positive. authors describe as clear evidence of carcinogenicity based on increas
Species: Mouse, Strain/Sex: B5C3F1/ Male (50/Group), Route: Inhalation, Dose: 0, 250, 500, 1,000 ppm for 6 hr plus 12 min per d, 5 d/wk, 105 wk (Study duration: 105 wk), Dose: 0, 250, 500, 1,000 ppm for 6 hr plus 12 min per d, 5 d/wk, 105 wk (Study duration: 105 wk), Tumor Site: Type of Lesion: Lung: Alveolar/bronchiolar adenoma (13/50; 31/50; 29/50), Alveolar/bronchiolar carcinoma (9/50, 19/50, 32/50, 33/, Tumor Site: Type of Lesion: Lung: Alveolar/bronchiolar adenoma (13/50; 31/50; 29/50), Alveolar/bronchiolar carcinoma (9/50, 19/50, 32/50, 33/
  carcinogen call: active; positive. authors describe as clear evidence of carcinogenicity based on increas
Species: Rat, Strain/Sex: F344/N / Female (50/Group), Route: Inhalation, Dose: 0, 250, 500, 1,000 ppm for 6 hr plus 12 min per d, 5 d/wk, 105 wk (Study duration: 105 wk), Dose: 0, 250, 500, 1,000 ppm for 6 hr plus 12 min per d, 5 d/wk, 105 wk (Study duration: 105 wk), Tumor Site: Type of Lesion: Nose (respiratory epithelium): Adenoma (0/50; 5/48; 4/50; 3/50)
  carcinogen call: inactive; negative. authors describe as some evidence of carcinogenicity.
Species: Rat, Strain/Sex: F344/N / Male (50/Group), Route: Inhalation, Dose: 0, 250, 500, 1,000 ppm for 6 hr plus 12 min per d, 5 d/wk, 105 wk (Study duration: 105 wk), Dose: 0, 250, 500, 1,000 ppm for 6 hr plus 12 min per d, 5 d/wk, 105 wk (Study duration: 105 wk), Tumor Site: Type of Lesion: Nose (respiratory epithelium): Adenoma (0/50, 7/50, 18/49, 10/50, Renal tubule: Adenoma (1/50; 4/50; 5/50; 4/50), Renal, Tumor Site: Type of Lesion: Nose (respiratory epithelium): Adenoma (0/50, 7/50, 18/49, 10/50, Renal tubule: Adenoma (1/50; 4/50; 5/50; 4/50), Renal
  carcinogen call: active; positive. authors describe as clear evidence of carcinogenicity except that test

## O=C([O-])CNCCNCC(=O)[O-].O=C([O-])CNCCNCC(=O)[O-].O=C([O-])CNCCNCC(=O)[O-].[Fe+3].[Fe+3]
Species: RAT, Strain/Sex: WISTAR/MALE, Route: INTRAPERITONEAL, Dose: 0, 10 MG/KG BW 2/WK FOR 3 MO (STUDY DURATION: 1 YR), Tumor Site: Type of Lesion: KIDNEY: TUMOR
  carcinogen call: active; positive

## CN(CCCC(O)c1cccnc1)N=O (centres undefined)
Species: MOUSE, Strain/Sex: STRAIN-A/FEMALE, Route: INTRAPERITONEAL, Dose: 0, 10, 50 UMOL TOTAL DOSE ADMINISTERED IN SUBDOSES 3/WK FOR 7 WK (STUDY DURATION: 37 WK), Dose: 0, 10, 50 UMOL TOTAL DOSE ADMINISTERED IN SUBDOSES 3/WK FOR 7 WK (STUDY DURATION: 37 WK), Tumor Site: Type of Lesion: LUNG: TUMOR
  carcinogen call: active; positive
Species: RAT, Strain/Sex: F344/MALE, Route: ORAL, Dose: 0, 5 PPM IN DRINKING WATER FOR DURATION OF STUDY (TOTAL DOSE: 0; 0.69 MMOL/KG) (STUDY DURATION: 112 WK), Dose: 0, 5 PPM IN DRINKING WATER FOR DURATION OF STUDY (TOTAL DOSE: 0; 0.69 MMOL/KG) (STUDY DURATION: 112 WK), Tumor Site: Type of Lesion: LUNG: ADENOCARCINOMA, ADENOSQUAMOUS CARCINOMA, EXOCRINE PANCREAS: ACINAR ADENOMA OR ACINAR ADENOCARCINOMA OR DUCTAL ADEN
  carcinogen call: active; positive

## OCCN(CCO)C(=S)S
Species: MOUSE, Strain/Sex: B6AKF1/MALE, Route: GAVAGE/ORAL, Dose: 464 MG/KG FROM D 7-28 OF LIFE THEN 1112 MG/KG IN DIET, Tumor Site: Type of Lesion: LIVER: HEPATOMA
  carcinogen call: active; positive
Species: MOUSE, Strain/Sex: B6C3F1/MALE,FEMALE, Route: GAVAGE/ORAL, Dose: 464 MG/KG FROM D 7-28 OF LIFE THEN 1112 MG/KG IN DIET, Tumor Site: Type of Lesion: LIVER: HEPATOMA
  carcinogen call: active; positive
Species: RAT, Strain/Sex: STRAIN-CD/MALE,FEMALE, Route: ORAL, Dose: 500, 1000 PPM IN DIET FOR 78 WK
  carcinogen call: inactive; negative

## O=C1C=Cc2cccc3cccc1c23
Species: MOUSE, Strain/Sex: ICR/FEMALE, Route: INTRAPERITONEAL, Dose: 0, 0.84, 2.1, 4.2 MG (TOTAL DOSES) ADMINISTERED TO NEWBORN MICE AS 1/7 ON DAY 1, 2/7 ON DAY 8 AND 4/7 ON DAY 15 (STUDY D, Dose: 0, 0.84, 2.1, 4.2 MG (TOTAL DOSES) ADMINISTERED TO NEWBORN MICE AS 1/7 ON DAY 1, 2/7 ON DAY 8 AND 4/7 ON DAY 15 (STUDY D
  carcinogen call: inactive; negative
Species: MOUSE, Strain/Sex: ICR/MALE, Route: INTRAPERITONEAL, Dose: 0, 0.84, 2.1, 4.2 MG (TOTAL DOSES) ADMINISTERED TO NEWBORN MICE AS 1/7 ON DAY 1, 2/7 ON DAY 8 AND 4/7 ON DAY 15 (STUDY D, Dose: 0, 0.84, 2.1, 4.2 MG (TOTAL DOSES) ADMINISTERED TO NEWBORN MICE AS 1/7 ON DAY 1, 2/7 ON DAY 8 AND 4/7 ON DAY 15 (STUDY D, Tumor Site: Type of Lesion: LUNG: TUMOR
  carcinogen call: active; positive
